Reference: patent US9409961B2, “Cell penetrating peptides to target EIF4E” (Hoffmann-La Roche Inc., priority 2012, dated 2016)
Square brackets hold non-standard residues; d marks the D form. Peptide text beside a SMILES is read from it. tBuAla = CC(C)(C)C[C@H](N)C(=O)O

What was measured:
[1] = stability in human plasma; assay type: in vitro ADME; settings: pH 7.4, Conc. 10 uM, 37° C.
Description: (§1) The following study was conducted to assess the stability of the compound of Examples 2-4 (SEQ ID NOS: 9, 10 and 11) in Hannover Wistar rat and human plasma after 4 and 24 hours. Approximately, 2.0 mg of the compound of Examples 2-4 (SEQ ID NOS 9, 10 and 11) was weighed out and placed in a 4 mL amber vial. To this was added 1.0 mL DMSO. The vial was carefully vortexed to produce a solution of approximately 600 μM.
(§2) Hannover Wistar rat plasma and human plasma (anti-coagulant sodium EDTA) were pre-warmed to 37° C. for 30 minutes in a water bath. The pH of both plasmas was adjusted to pH7.4. 1.5 mL microcentrifuge vials were used.
(§3) The stock solution of the compound of Examples 2-4 was diluted into rat or human plasma to a final concentration of 10 μM. The two vials were gently vortexed ensuring proper mixing.
(§4) Six new vials were labeled as follows: rat T0, rat T4, rat T24, human T0, human T4, human T24. To each of these vials, 50 μL of treated plasma was added. The T4 and T24 vials were capped and placed in a 37° C. incubator for 4 and 24 hours, respectively.
(§5) To each of the two T0 vials, 50 μL of Sorensen buffer and 200 μL 1.0% acetic acid in acetonitrile were added. The T0 vials were then capped, vortexed and centrifuged at 10000×g for 10 minutes. Upon completion of centrifugation, 100 μL of the supernatant of each vial was added to a separate well in a 96-well injection block. 200 µL of 0.1% acetic acid in Milli-Q® water (Millipore) was then added to each well.
(§6) The above procedure as written with respect to the T0 vials was repeated for the two T4 vials at the 4 hour time point and the T24 vials at the 24 hour time point. With each time point a fresh T0 sample was prepared, as described above, to ensure there was no sample degradation.
(§7) All samples were analyzed by LC/MS/MS. The resulting chromatographs were processed to obtain peaks areas for each sample. The percent of compound remaining at each time point as compared with the amount present in the comparison T0 sample was calculated.

[2] = system: downstream target gene expression; test: downstream target gene expression and apoptosis (FIG. 2); assay type: cell-based
[3] = target: T1, human eIF4E (Homo sapiens, UniProt P06730); test: biochemical assay of peptide binding to human eIF4E (displacement of biotin labeled 4G2 peptide)
T1 construct: made in house
T1 sequence (P06730 with tags, fused parts or gaps): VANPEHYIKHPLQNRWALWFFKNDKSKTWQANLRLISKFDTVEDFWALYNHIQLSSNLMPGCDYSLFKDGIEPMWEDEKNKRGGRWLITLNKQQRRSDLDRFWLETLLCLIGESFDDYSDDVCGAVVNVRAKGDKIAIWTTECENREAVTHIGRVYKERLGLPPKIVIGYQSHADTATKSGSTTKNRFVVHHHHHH
Description: A biochemical assay was run to test peptide binding to human eIF4E.
Human eIF4E (aa 28-217, SEQ ID NO: 87) with a C-terminal His tag (HH-eIF4E, SEQ ID NO: 88) was expressed in E. coli in inclusion bodies. The protein was solubilized with 8 M urea and purified under denaturing conditions using nickel-charged HisTrap HP columns (GE Healthcare). The protein was refolded by diluting to approximately 0.25 mg/mL with 6 M urea, 20 mM Hepes pH 7.0, 500 mM NaCl, 1 mM DTT, 1 mM EDTA, and 0.5 M arginine.HCl, and then dialyzing overnight into the same buffer without the urea. The protein was further dialyzed into 20 mM Hepes pH 6.5, 50 mM NaCl, 1 mM EDTA, and 1 mM DTT, filtered, and then concentrated using Hitrap SP sepharose FF columns (GE Healthcare). The protein was dialyzed into 20 mM Hepes pH 7.0, 500 mM NaCl, 5 mM DTT, and 10% glycerol and stored at −80° C. until use.
Test peptides (1.6 mM stock in DMSO) were diluted 3 fold in series in DMSO and solutions were diluted 4 fold in Assay Buffer (50 mM NaPi, pH 6.5, 50 mM KCl, 1 mM DTT, 0.004% NP40 and 0.5 mg/ml gammaglobulin). Six microliters per well of diluted peptide solutions and 12 microliters per well of 187.5 nM HH-eIF4E in Assay Buffer were added to 384-well polypropylene microplates (Matrix, Thermal Scientific). Twelve microliters per well of 187.5 nM biotin labeled 4G2 peptide (Ac-[…]Aha-Bio)-NH2 (SEQ ID NO: 91) 1:2 TFA) in Assay Buffer was added. The samples were incubated at room temperature for 20 minutes.
Six microliters per well of 4.8 nM Eu-streptavidin (Columbia Biosciences) and 48 nM Allophycocyanin-anti His antibody (Columbia Biosciences) in Assay Buffer (without DTT) were then added and the samples were incubated at room temperature for 30 min. Assay signals were monitored by reading emission fluorescence at 665 nm on an Envision Reader (PerkinElmer Life and Analytical Sciences). IC50 values were calculated using Condoseo software (Genedata AG, Basel, Switzerland).

[4] = stability in rat plasma; assay type: in vitro ADME; settings: Hannover Wistar, pH 7.4, Conc. 10 uM, 37° C.
Description: as §1, §2, §3, §4, §5, §6, §7

[5] = Binding affinities expressed as IC50, HH-eIF4E, biotin labeled 4G2 peptide
[6] = IC50 (μM), Table 2a, cell penetrating peptides with the Y----LL-F and YWLLALFVY motifs
[7] = IC50 (μM), Table 2, cell-penetrating peptides with the Y----LL-F motif

What does the source list for “Ac-MAKLKYWLLALFVYMWTDLLLFKKRPKP-NH2 [SEQ ID NO: 9]”?
remaining at 4 h, 10 µM [1]: 94.9%; remaining at 24 h, 10 µM [1]: 76.2%; apoptosis [2]: induce apoptosis; downstream target gene expression [2]: inhibit downstream target gene expression; IC50 [3, 5]: 4.4 µM; remaining at 4 h, 10 µM [4]: 91.7%; remaining at 24 h, 10 µM [4]: 18.2%

Which remaining at 4 h, 10 µM [1] does the source give for “Ac-MANLAYWLLALFVYMWTDLRLFKKRPKP-NH2 [SEQ ID NO: 10]” here?
The remaining at 4 h, 10 µM was 99.1%.

And the remaining at 24 h, 10 µM [1]?
The remaining at 24 h, 10 µM was 45.2%.

And the apoptosis [2]?
The apoptosis was “induce apoptosis”.

And the “downstream target gene expression” value [2]?
The value was “inhibit downstream target gene expression”.

What about the IC50 [3, 5] of the same compound?
The IC50 was 6.61 µM.

And the IC50 [3, 6]?
Its IC50 is 1.7 µM.

And the remaining at 4 h, 10 µM [4]?
The remaining at 4 h, 10 µM was 102%.

And the remaining at 24 h, 10 µM [4]?
The remaining at 24 h, 10 µM was 23.7%.

With `CSCC[C@H](NC(=O)[C@H](Cc1ccc(O)cc1)NC(=O)[C@@H](NC(=O)[C@H](Cc1ccccc1)NC(=O)[C@H](CC(C)C)NC(=O)[C@H](C)NC(=O)[C@H](CC(C)C)NC(=O)[C@H](CC(C)C)NC(=O)[C@H](Cc1c[nH]c2ccccc12)NC(=O)[C@H](Cc1ccc(O)cc1)NC(=O)[C@H](C)NC(=O)[C@H](CC(C)C)NC(C)=O)C(C)C)C(=O)N[C@@H](Cc1c[nH]c2ccccc12)C(=O)N[C@H](C(=O)N[C@@H](CC(=O)O)C(=O)N[C@@H](CC(C)C)C(=O)N[C@@H](CCCNC(=N)N)C(=O)N[C@@H](CC(C)C)C(=O)N[C@@H](CC(C)(C)C)C(=O)N[C@@H](CCCCN)C(=O)N[C@@H](CCCCN)C(=O)N[C@@H](CCCNC(=N)N)C(=O)N1CCC[C@H]1C(=O)N[C@@H](CCCCN)C(=O)N1CCC[C@H]1C(N)=O)[C@@H](C)O` [SEQ ID NO: 32] (Ac-LAYWLLALFVYMWTDLRL[tBuAla]KKRPKP-NH2) as the compound, how does the IC50 [3, 6] read?
The IC50 was 4.73 µM.

Which IC50 [3, 7] does the source give for “Ac-MVKYKIASLLLFLFVAMWSDVALAKKRPKP-NH2 [SEQ ID NO: 17]” here?
The IC50 was 12.5 µM.

Which IC50 [3, 6] does the source give for “Ac-MANLAYWLLALFVYRWTDLRLFKKRPKP-NH2 [SEQ ID NO: 41]” here?
Its IC50 is 3.48 µM.

For “Ac-MVKSKIYSWILLLFFAMWSDVALAKKRPKP-NH2 [SEQ ID NO: 20]”, which IC50 [3, 7] is on record?
The IC50 was 9.96 µM.

With “Ac-MYKSKILLWFLVLFVAMWSDVALAKKRPKP-NH2 [SEQ ID NO: 19]” as the compound, how does the IC50 [3, 7] read?
Its IC50 is 7.21 µM.
